Test results published in patent publication US20240317709A1, “Lysophosphatidic Acid Receptor Antagonists for Breast Cancer Treatment” (Lakehead University, priority 2023, published 2024).
Like-named read-outs stand apart in the source and are kept apart here.

What was measured:
[1] = biological target: T1, LPA1 (Homo sapiens, UniProt Q92633); test: in vitro cAMP assay using a CHO cell line overexpressing LPA1 receptor; type: cell-based; parameters: GFP; host or cells: CHO-K1, transiently transfected; details: for % inhibition: cAMP assay, 1 μM LPA, 100 nM forskolin, test concentration not given
Target sequence in this assay (Q92633 whole entry): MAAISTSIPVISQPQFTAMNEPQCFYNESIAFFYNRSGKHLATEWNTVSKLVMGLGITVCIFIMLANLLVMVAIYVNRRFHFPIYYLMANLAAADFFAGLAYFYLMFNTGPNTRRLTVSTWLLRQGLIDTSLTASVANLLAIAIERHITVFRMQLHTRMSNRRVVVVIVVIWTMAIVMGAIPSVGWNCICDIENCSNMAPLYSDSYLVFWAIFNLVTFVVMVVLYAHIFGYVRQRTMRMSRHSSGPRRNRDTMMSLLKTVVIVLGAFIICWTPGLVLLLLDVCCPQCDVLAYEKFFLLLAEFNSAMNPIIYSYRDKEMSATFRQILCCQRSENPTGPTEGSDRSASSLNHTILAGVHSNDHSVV

[2] = system: MDA-MB-231 cells; test: colony formation assay; type: cell-based; details: LPA with 1f 0, 0.5, 1.0 or 1.5 mM, FIG. 2
Protocol: In order to study the effect of LPA and the compound 1f on the proliferation, migration, and invasion of MDA-MB-231, several in vitro assays were performed. Colony formation assay is a cell survival assay based on the ability of a single cell to grow into a colony and was performed to evaluate cell proliferation (17).
MDA-MB-231 cells were trypsinized and plated in 6-well plate at a density of 1,000 cells/well and then cultured in 10% FBS DMEM. Cells were allowed to attach overnight and then exposed to LPA or LPA with 1f (0, 0.5, 1.0 or 1.5 mM). Forty-eight hours after chemical treatment, the media was replaced with fresh media, and the plates were incubated at 37° C. Ten days later, the cells were fixed and stained with 4% paraformaldehyde in 0.1% crystal violet. The number of colonies, defined as >50 cells/colony were counted, and the number of colonies were calculated using ImageJ.

[3] = system: MDA-MB-231 cells; test: wound healing assay; type: cell-based; details: LPA with 1f 0, 0.5, 1.0 or 1.5 mM, 48 h, FIG. 3A
Protocol: Wound healing assay is a well-established method to determine cell migration in vitro. Firstly, a scratch was created in the cell monolayer, and then cells migrate to close the scratch. Cell migration rate can be measured using this method.
Cells were seeded in a six-well plate at a density of 3×10^5 cells/well. When the cells formed a tight cell monolayer, a 200-μl plastic pipette tip was used to make a scratch. Cells were washed with PBS to remove cell debris, cultured in serum-free DMEM medium and exposed to LPA or LPA with 1f (0, 0.5, 1.0 or 1.5 mM) for 48 h.
Wound photographs were recorded at the indicated times and analyzed by ImageJ software. All assays were conducted three times in our study.

[4] = system: MDA-MB-231 cells; test: transwell cell migration assay; type: cell-based; details: LPA with 1f 0, 0.5, 1.0 or 1.5 mM, 48 h, FIG. 3B
Protocol: (§1) In addition, transwell migration/invasion assays were performed to further confirm the effect of LPA and 1f on cell migration and invasion. Transwell assay is based on a chamber of two media-filled partitions separated by a microporous membrane. Cells were plated in the upper chamber and are allowed to migrate to the lower chamber through the membrane pores with the stimulation of LPA and 1f. For the invasion assay, a layer of basement membrane extract was precoated on the chamber to block the pores of the membrane and prevent non-invasive cells from migrating through the membranes. Invasive cells are able to secret proteases which degrade the membrane extract in order to invade through the membrane.
(§2) Transwell assays were conducted in 24-well transwell plates (pore size: 8 μm) to assess the migratory and invasive capacities of MDA-MB-231 cells. For migration assays, 2×10^4 cells were placed in 200 μl of serum-free DMEM in the upper chamber and then 500 μl of DMEM containing 10% FBS was added to the lower chamber. For the invasion assays, the chamber inserts were precoated with 50 μl of 1:9 mixture of basement membrane extract (R&D Systems) and DMEM overnight in a 37° C. incubator, then 6×10^4 cells were seeded in the upper chamber. 500 μl of DMEM containing 10% FBS was added to the lower chamber. Cells were treated with LPA or LPA with 1f (0, 0.5, 1.0 or 1.5 mM) for 48 h. […]

[5] = system: MDA-MB-231 cells; test: transwell cell invasion assay; type: cell-based; details: basement membrane extract coated, LPA with 1f 0, 0.5, 1.0 or 1.5 mM, 48 h, FIG. 3B
Protocol: as §1, §2

[6] = biological target: T1, LPA1; details: literature value (ref 15); read-out: IC50 in calcium release assay (LPA1); cited from earlier work
Target sequence in this assay (Q92633 whole entry, species assumed): as the sequence (Q92633 whole entry) above

[7] = biological target: T2, LPAs (Homo sapiens, UniProt Q9UBY5); details: literature value (ref 15); read-out: LPAs IC50 in calcium release assay; cited from earlier work
T2 sequence (Q9UBY5 1-353): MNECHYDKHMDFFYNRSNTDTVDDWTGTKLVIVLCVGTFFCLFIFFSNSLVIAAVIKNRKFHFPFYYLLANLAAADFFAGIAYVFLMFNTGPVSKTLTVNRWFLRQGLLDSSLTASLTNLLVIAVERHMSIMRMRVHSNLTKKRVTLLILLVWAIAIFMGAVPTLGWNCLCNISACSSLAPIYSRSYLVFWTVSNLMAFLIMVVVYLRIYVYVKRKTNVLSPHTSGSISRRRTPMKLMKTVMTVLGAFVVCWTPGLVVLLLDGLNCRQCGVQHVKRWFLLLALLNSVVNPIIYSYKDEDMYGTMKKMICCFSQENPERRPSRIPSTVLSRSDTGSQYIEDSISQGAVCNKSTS

[8] = system: lung fibroblast; details: in vitro; literature (ref 15); cited from earlier work
[9] = system: histamine release induced by LPA; details: in vivo; literature (ref 15); cited from earlier work
[10] = concentration to reverse 50% of the inhibitory effect of 1 μM 18:1 LPA on forskolin-mediated cAMP production, CHO-K1 overexpressing LPA1

| SMILES | % inhibition [1] [%] | IC50 [1, 10] [nM] | other results |
| --- | --- | --- | --- |
| Cc1nnn(-c2ccc(-c3ccc(C4(C(=O)O)CC4)cc3)cc2)c1NC(=O)N[C@@H](C)c1ccccc1 [Compound 2g, (S)-1-(4′-(4-methyl-5-(3-(1-phenylethyl)ureido)-1H-1,2,3-triazol-1-yl)-[1,1′-biphenyl]-4-yl)cyclopropane-1-carboxylic acid] | 92.7 | 299 |  |
| Cc1nnn(-c2ccc(-c3ccc(C4(C(=O)O)CC4)cc3)cc2)c1NC(=O)NC(C)c1ccccc1 (stereo not shown) [Compound 2h, 1-(4′-(4-methyl-5-(3-(1-phenylethyl)ureido)-1H-1,2,3-triazol-1-yl)-[1,1′-biphenyl]-4-yl)cyclopropane-1-carboxylic acid] | 83.8 | 240 |  |
| Cc1nnn(-c2ccc(-c3ccc(C4(C(=O)O)CC4)cc3)cc2)c1NC(=O)N[C@H](C)c1ccc(F)cc1 [Compound 2e, (R)-1-(4′-(5-(3-(1-(4-fluorophenyl)ethyl)ureido)-4-methyl-1H-1,2,3-triazol-1-yl)-[1,1′-biphenyl]-4-yl)cyclopropane-1-carboxylic acid] | 102.0 | 780 |  |
| Cc1nnn(-c2ccc(-c3ccc(C4(C(=O)O)CC4)cc3)cc2)c1NC(=O)NCc1cccc(F)c1 [Compound 2c, 1-(4′-(5-(3-(3-fluorobenzyl)ureido)-4-methyl-1H-1,2,3-triazol-1-yl)-[1,1′-biphenyl]-4-yl)cyclopropane-1-carboxylic acid] | 88.1 | 2000 |  |
| Cc1nnn(-c2ccc(-c3ccc(C4(C(=O)O)CC4)cc3)cc2)c1NC(=O)NCc1ccccn1 [Compound 2a, 1-(4′-(4-methyl-5-(3-(pyridin-2-ylmethyl)ureido)-1H-1,2,3-triazol-1-yl)-[1,1′-biphenyl]-4-yl)cyclopropane-1-carboxylic acid] | 41.8 | 1000 |  |
| Cc1nnn(-c2ccc(-c3ccc(C4(C(=O)O)CC4)cc3)cc2)c1NC(=O)NCc1ccc(F)cc1 [Compound 2b, 1-(4′-(5-(3-(4-fluorobenzyl)ureido)-4-methyl-1H-1,2,3-triazol-1-yl)-[1,1′-biphenyl]-4-yl)cyclopropane-1-carboxylic acid] | 40.5 | 3150 |  |
| Cc1nnn(-c2ccc(-c3ccc(C4(C(=O)O)CC4)cc3)cc2)c1NC(=O)N[C@H](C)c1ccccc1 [Compound 2f, (R)-1-(4′-(4-methyl-5-(3-(1-phenylethyl)ureido)-1H-1,2,3-triazol-1-yl)-[1,1′-biphenyl]-4-yl)cyclopropane-1-carboxylic acid] | 108.1 | 242 |  |

Now from value to compound, other results behind:

| % inhibition [1] [%] | IC50 [1, 10] [nM] | SMILES | other results |
| --- | --- | --- | --- |
| 77.1 | 2150 | Cc1nnn(-c2ccc(-c3ccc(C4(C(=O)O)CC4)cc3)cc2)c1NC(=O)OCc1cccc(F)c1 [Compound 1c, 1-(4′-(5-((((3-fluorobenzyl)oxy)carbonyl)amino)-4-methyl-1H-1,2,3-triazol-1-yl)-[1,1′-biphenyl]-4-yl)cyclopropane-1-carboxylic acid] |  |
| 102.1 | 93.3 | Cc1nnn(-c2ccc(-c3ccc(C4(C(=O)O)CC4)cc3)cc2)c1NC(=O)OC(C)c1ccc(F)cc1 (stereo not shown) [Compound 1e, 1-(4′-(5-(((1-(4-fluorophenyl)ethoxy)carbonyl)amino)-4-methyl-1H-1,2,3-triazol-1-yl)-[1,1-biphenyl]-4-yl)cyclopropane-1-carboxylic acid] |  |
| 109.8 | 16 | Cc1nnn(-c2ccc(-c3ccc(C4(C(=O)O)CC4)cc3)cc2)c1NC(=O)OC(C)c1cccc(F)c1 (stereo not shown) [Compound 1f, 1-(4′-(5-(((1-(3-fluorophenyl)ethoxy)carbonyl)amino)-4-methyl-1H-1,2,3-triazol-1-yl)-[1,1′-biphenyl]-4-yl)cyclopropane-1-carboxylic acid] | inhibition of LPA-induced cell proliferation (colony formation) [2]: inhibited LPA-induced MDA-MB-231 cell proliferation in a dose-dependent manner; inhibition of LPA-induced cell migration (wound healing) [3]: impeded cell migration dose-dependently; inhibition of LPA-induced cell migration (transwell) [4]: hindered by 1f dose-dependently; inhibition of LPA-induced cell invasion (transwell) [5]: hindered by 1f dose-dependently; IC50 (nM) [1, 10]: lower than the control compound |
| 111.6 | 18.3 | Cc1nnn(-c2ccc(-c3ccc(C4(C(=O)O)CC4)cc3)cc2)c1NC(=O)O[C@H](C)c1ccccc1 [RO-2] | IC50 [6]: 25 nM; IC50 [7]: > 30000 nM; inhibition of lung fibroblast contraction induced by LPA [8]: inhibited lung fibroblast proliferation and contraction induced by LPA in vitro; inhibition of lung fibroblast proliferation induced by LPA [8]: inhibited lung fibroblast proliferation and contraction induced by LPA in vitro; histamine release induced by LPA [9]: ameliorated histamine release induced by LPA in vivo |
| 115.7 | 91.2 | CCc1cccc(COC(=O)Nc2c(C)nnn2-c2ccc(-c3ccc(C4(C(=O)O)CC4)cc3)cc2)c1 [Compound 1h, 1-(4′-(5-((((3-ethylbenzyl)oxy)carbonyl)amino)-4-methyl-1H-1,2,3-triazol-1-yl)-[1,1′-biphenyl]-4-yl)cyclopropane-1-carboxylic acid] |  |
| 49.5 | 4470 | Cc1nnn(-c2ccc(-c3ccc(C4(C(=O)O)CC4)cc3)cc2)c1NC(=O)NCc1ccccc1F [Compound 2d, 1-(4′-(5-(3-(2-fluorobenzyl)ureido)-4-methyl-1H-1,2,3-triazol-1-yl)-[1,1′-biphenyl]-4-yl)cyclopropane-1-carboxylic acid] |  |
| 58.43 | 3340 | Cc1nnn(-c2ccc(-c3ccc(C4(C(=O)O)CC4)cc3)cc2)c1NC(=O)OCc1ccc(F)cc1 [Compound 1b, 1-(4′-(5-((((4-fluorobenzyl)oxy)carbonyl)amino)-4-methyl-1H-1,2,3-triazol-1-yl)-[1,1′-biphenyl]-4-yl)cyclopropane-1-carboxylic acid] |  |
| 81.9 | 1490 | Cc1nnn(-c2ccc(-c3ccc(C4(C(=O)O)CC4)cc3)cc2)c1NC(=O)OCc1ccccc1F [Compound 1d, 1-(4′-(5-((((2-fluorobenzyl)oxy)carbonyl)amino)-4-methyl-1H-1,2,3-triazol-1-yl)-[1,1′-biphenyl]-4-yl)cyclopropane-1-carboxylic acid] |  |
